In article PMC10999543, “Identification of kinase modulators as host-directed therapeutics against intracellular methicillin-resistant Staphylococcus aureus” (Frontiers in Cellular and Infection Microbiology, 2024):
Read-outs that look alike come from different tables or passages of the source.

Assays:
intracellular MRSA = type: cell-based, Staphylococcus aureus; conditions: for %GFP+ rep 1 / z-scoreMRSA+ rep 1: replicate 1; for %GFP+ rep 2 / z-scoreMRSA+ rep 2: replicate 2; for %GFP+ rep 3 / z-scoreMRSA+ rep 3: replicate 3; for z-scoreMRSA+ mean: mean of 3 replicates; on %GFP+ rep 1: test concentration or dose not given here; on %GFP+ rep 2: test concentration or dose not given here; on %GFP+ rep 3: test concentration or dose not given here; on effect: test concentration or dose not given here; on z-scoreMRSA+ mean: test concentration or dose not given here; on z-scoreMRSA+ rep 1: test concentration or dose not given here; on z-scoreMRSA+ rep 2: test concentration or dose not given here; on z-scoreMRSA+ rep 3: test concentration or dose not given here
How it was run: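 Values are z-scores: GFP-positive HeLa percentage and event count per well against plate statistics, minus the mean DMSO z-score. Wells deviating two-fold from controls were left out of plate means. Infection was at a mean MOI of 6.8, with an overnight compound exposure.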

HeLa cells = experiment: Compound screen by flow cytometry: HeLa cell count as surrogate readout of cell viability (z-scoreHeLa); type: cell-based, human; further: test concentration or dose not given here
How it was run: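 The viability surrogate was the count of fixed HeLa cells by flow cytometry, converted to z-scores against DMSO controls with values deviating two-fold excluded. Before counting, cells had been infected with MRSA for 1 h and cleared of extracellular bacteria with gentamicin. They were then exposed overnight to kinase inhibitors in triplicate.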

[1] = PKIS compounds raw data, MRSA-infected HeLa cells
[2] = Yes/No: effect without cell death
[3] = compound screen, MRSA-infected HeLa cells
[4] = PKIS compounds raw data, replicate 1, HeLa cell count
[5] = PKIS compounds raw data, replicate 2, HeLa cell count
[6] = PKIS compounds raw data, replicate 3, HeLa cell count
[7] = PKIS compound screen, Yes/No call
[8] = PKIS compound screen, Yes/No call (effect without cell death)
[9] = PKIS compound screen, mean of 3 replicates
[10] = PKIS compound screen, replicate 1
[11] = PKIS compound screen, replicate 2
[12] = PKIS compound screen, replicate 3
[13] = PKIS compound screen raw data, MRSA-infected HeLa cells
[14] = PKIS compound screen raw data, HeLa cell count, replicate 1
[15] = PKIS compound screen raw data, HeLa cell count, replicate 2
[16] = PKIS compound screen raw data, HeLa cell count, replicate 3
[17] = compound screen, HeLa cell count, mean of 3 replicates
[18] = compound screen, HeLa cell count, replicate 1
[19] = compound screen, HeLa cell count, replicate 2
[20] = compound screen, HeLa cell count, replicate 3
[21] = PKIS compound screen, MRSA-infected HeLa cells
[22] = PKIS compound screen, Yes/No call on z-scoreMRSA+
[23] = PKIS compound screen, HeLa cell count, mean of 3 replicates
[24] = PKIS compound screen, HeLa cell count, replicate 1
[25] = PKIS compound screen, HeLa cell count, replicate 2
[26] = PKIS compound screen, HeLa cell count, replicate 3
[27] = PKIS compound screen, Yes/No call on z-scoreHeLa

SMILES	%GFP+ rep 1 (intracellular MRSA; [1]) [%]	%GFP+ rep 2 (intracellular MRSA; [1]) [%]	%GFP+ rep 3 (intracellular MRSA; [1]) [%]	effect (intracellular MRSA; Yes/No call from z-scoreMRSA+)	hit (intracellular MRSA; [2])	z-scoreMRSA+ mean (intracellular MRSA; [3])	z-scoreMRSA+ rep 1 (intracellular MRSA; [3])	z-scoreMRSA+ rep 2 (intracellular MRSA; [3])	z-scoreMRSA+ rep 3 (intracellular MRSA; [3])	cell count rep 1 (HeLa cells; [4])	cell count rep 2 (HeLa cells; [5])	cell count rep 3 (HeLa cells; [6])	cell death (HeLa cells; Yes/No call from z-scoreHeLa)	hit (intracellular MRSA; [8])	%GFP+ rep 1 (intracellular MRSA; [13]) [%]	%GFP+ rep 2 (intracellular MRSA; [13]) [%]	%GFP+ rep 3 (intracellular MRSA; [13]) [%]	cell count rep 1 (HeLa cells; [14])	cell count rep 2 (HeLa cells; [15])	cell count rep 3 (HeLa cells; [16])	other results
Clc1ccc(CNc2nccc(-c3cnn4ncccc34)n2)cc1 [GW781673X]	13.1	14.6	14.3	No	No	-0.04	-0.0227	0.37	-0.47	3767	3267	5990	No								z-scoreHeLa mean (HeLa cells; human): -0.71; z-scoreHeLa rep 1 (HeLa cells; human): -0.91; z-scoreHeLa rep 2 (HeLa cells; human): -0.76; z-scoreHeLa rep 3 (HeLa cells; human): -0.46
COc1cccc(-n2ncc3c(N/N=C/c4ccncc4)ncnc32)c1 [GW784752X]	11.8	11.6	12.3							3928	3683	8225		No							effect (intracellular MRSA; [7]): No; z-scoreMRSA+ mean (intracellular MRSA; PKIS compound screen): -0.71; z-scoreMRSA+ rep 1 (intracellular MRSA; PKIS compound screen): -0.44; z-scoreMRSA+ rep 2 (intracellular MRSA; PKIS compound screen): -0.63; z-scoreMRSA+ rep 3 (intracellular MRSA; PKIS compound screen): -1.06; cell death (HeLa cells; [7]): No; z-scoreHeLa mean (HeLa cells; [9]): -0.20; z-scoreHeLa rep 1 (HeLa cells; [10]): -0.77; z-scoreHeLa rep 2 (HeLa cells; [11]): -0.44; z-scoreHeLa rep 3 (HeLa cells; [12]): 0.60
Cc1c2ccc(N(C)c3ccnc(Nc4cccc(S(N)(=O)=O)c4)n3)cc2nn1Cc1ccccc1 [GW787226A]				No	No	-0.82	-0.86	-0.49	-1.11				No		21.6	20.6	18.5	1356	1496	1271	z-scoreHeLa mean (HeLa cells; [17]): -2.28; z-scoreHeLa rep 1 (HeLa cells; [18]): -2.16; z-scoreHeLa rep 2 (HeLa cells; [19]): -2.16; z-scoreHeLa rep 3 (HeLa cells; [20]): -2.51
O=C(c1ccc(-c2cc(-c3c[nH]nc3-c3ccccn3)ccn2)cc1)N1CCCC1 [GW792479X]				No	No	0.35	0.38	0.49	0.18				No		20.2	21.2	21.9	29405	27776	26310	z-scoreHeLa mean (HeLa cells; [17]): 0.58; z-scoreHeLa rep 1 (HeLa cells; [18]): -0.13; z-scoreHeLa rep 2 (HeLa cells; [19]): 0.43; z-scoreHeLa rep 3 (HeLa cells; [20]): 1.44
COc1cccc(-n2nc(C)c3c(N/N=C(\C)c4ccncc4)ncnc32)c1 [GW809885X]	10.1	9.2	10.0	No	No	-1.40	-0.98	-1.45	-1.76	4315	6939	7689	No								z-scoreHeLa mean (HeLa cells; [17]): 0.65; z-scoreHeLa rep 1 (HeLa cells; [18]): -0.42; z-scoreHeLa rep 2 (HeLa cells; [19]): 2.02; z-scoreHeLa rep 3 (HeLa cells; [20]): 0.35
CN(c1ccc2c(c1)nc(NCc1ccccc1)n2C)c1ccnc(Nc2ccc(CS(C)(=O)=O)cc2)n1 [GW811603A]	29.9	27.8	24.6	No	No	1.02	1.08	1.26	0.72	3958	3626	4329	No								z-scoreHeLa mean (HeLa cells; [17]): -0.46; z-scoreHeLa rep 1 (HeLa cells; [18]): -0.28; z-scoreHeLa rep 2 (HeLa cells; [19]): -0.52; z-scoreHeLa rep 3 (HeLa cells; [20]): -0.57
CCOc1ccc2c(-c3ccnc(Nc4cccc(C(F)(F)F)c4)n3)cnn2n1 [GW811761X]														No	16.8	16.8	18.1	25545	40447	52915	z-scoreMRSA+ mean (intracellular MRSA; [21]): -0.46; z-scoreMRSA+ rep 1 (intracellular MRSA; [21]): -0.34; z-scoreMRSA+ rep 2 (intracellular MRSA; [21]): -0.52; z-scoreMRSA+ rep 3 (intracellular MRSA; [21]): -0.51; effect (intracellular MRSA; [22]): No; z-scoreHeLa mean (HeLa cells; [23]): 1.28; z-scoreHeLa rep 1 (HeLa cells; [24]): 0.82; z-scoreHeLa rep 2 (HeLa cells; [25]): 1.06; z-scoreHeLa rep 3 (HeLa cells; [26]): 1.97; cell death (HeLa cells; [27]): No
O=C(c1ccc(-c2cc(-c3c[nH]nc3-c3ccccn3)ccn2)cc1)N1CCOCC1 [GW812171X]	25.0	25.6	27.6							9409	7175	6822		No							effect (intracellular MRSA; [7]): No; z-scoreMRSA+ mean (intracellular MRSA; PKIS compound screen): -0.14; z-scoreMRSA+ rep 1 (intracellular MRSA; PKIS compound screen): -0.40; z-scoreMRSA+ rep 2 (intracellular MRSA; PKIS compound screen): -0.08; z-scoreMRSA+ rep 3 (intracellular MRSA; PKIS compound screen): 0.06; cell death (HeLa cells; [7]): No; z-scoreHeLa mean (HeLa cells; [9]): 1.19; z-scoreHeLa rep 1 (HeLa cells; [10]): 2.02; z-scoreHeLa rep 2 (HeLa cells; [11]): 0.77; z-scoreHeLa rep 3 (HeLa cells; [12]): 0.78
CN(c1ccc2c(c1)nc(NCc1ccc(F)cc1)n2C)c1ccnc(Nc2ccc(CS(C)(=O)=O)cc2)n1 [GW813244A]														No	19.9	20.6	22.3	29228	26803	36349	z-scoreMRSA+ mean (intracellular MRSA; [21]): 0.68; z-scoreMRSA+ rep 1 (intracellular MRSA; [21]): 0.65; z-scoreMRSA+ rep 2 (intracellular MRSA; [21]): 0.62; z-scoreMRSA+ rep 3 (intracellular MRSA; [21]): 0.76; effect (intracellular MRSA; [22]): No; z-scoreHeLa mean (HeLa cells; [23]): -0.26; z-scoreHeLa rep 1 (HeLa cells; [24]): 1.38; z-scoreHeLa rep 2 (HeLa cells; [25]): -1.49; z-scoreHeLa rep 3 (HeLa cells; [26]): -0.67; cell death (HeLa cells; [27]): No
CCCNC(=O)Nc1ccc(N(C)c2ccnc(NC3CC3)n2)cc1 [GW818933X]	27.9	27.2	26.9							6971	6954	6744		No	16.2	17.1	17.2	29169	27486	16622	z-scoreMRSA+ mean (intracellular MRSA; [21]): -0.81; z-scoreMRSA+ rep 1 (intracellular MRSA; [21]): -0.69; z-scoreMRSA+ rep 2 (intracellular MRSA; [21]): -0.63; z-scoreMRSA+ rep 3 (intracellular MRSA; [21]): -1.10; effect (intracellular MRSA; [7]): No; effect (intracellular MRSA; [22]): No; z-scoreMRSA+ mean (intracellular MRSA; PKIS compound screen): 0.11; z-scoreMRSA+ rep 1 (intracellular MRSA; PKIS compound screen): 0.16; z-scoreMRSA+ rep 2 (intracellular MRSA; PKIS compound screen): 0.22; z-scoreMRSA+ rep 3 (intracellular MRSA; PKIS compound screen): -0.07; z-scoreHeLa mean (HeLa cells; [23]): -0.08; z-scoreHeLa rep 1 (HeLa cells; [24]): -0.17; z-scoreHeLa rep 2 (HeLa cells; [25]): 0.38; z-scoreHeLa rep 3 (HeLa cells; [26]): -0.45; cell death (HeLa cells; [7]): No; cell death (HeLa cells; [27]): No; z-scoreHeLa mean (HeLa cells; [9]): 0.64; z-scoreHeLa rep 1 (HeLa cells; [10]): 0.56; z-scoreHeLa rep 2 (HeLa cells; [11]): 0.63; z-scoreHeLa rep 3 (HeLa cells; [12]): 0.73
